From article PMC11027041 (RSC Advances, 2024)

Columns and labels:
HDAC4 = HDAC4 (Homo sapiens, UniProt P56524); assay: In vitro HDAC enzyme assay; format: biochemical
HDAC5 = HDAC5 (Homo sapiens, UniProt Q9UQL6); assay: In vitro HDAC enzyme assay; format: biochemical
HDAC7 = HDAC7 (Homo sapiens, UniProt Q8WUI4); assay: In vitro HDAC enzyme assay; format: biochemical
HDAC8 = HDAC8 (Homo sapiens, UniProt Q9BY41); assay: In vitro HDAC enzyme assay; format: biochemical
[1] = system: colon cancer cell line HCT-116; assay: Cell viability assay; format: cell-based; conditions: Homo sapiens, HCT-116, 72 h, read-out: Antiproliferative IC50 HCT116
CCRF-CEM = assay: NCI-60 antiproliferative screening; format: cell-based; conditions: Homo sapiens, read-out: percent inhibition
K-562 = assay: NCI-60 antiproliferative screening; format: cell-based; conditions: Homo sapiens, K562, read-out: percent inhibition
MOLT-4 = assay: NCI-60 antiproliferative screening; format: cell-based; conditions: Homo sapiens, MOLT-4, read-out: percent inhibition
HOP-62 = assay: NCI-60 antiproliferative screening; format: cell-based; conditions: Homo sapiens, HOP-62, read-out: percent inhibition
NCI-H460 = assay: NCI-60 antiproliferative screening; format: cell-based; conditions: Homo sapiens, NCI-H460, read-out: percent inhibition
NCI-H522 = assay: NCI-60 antiproliferative screening; format: cell-based; conditions: Homo sapiens, NCI-H522, read-out: percent inhibition
COLO 205 = assay: NCI-60 antiproliferative screening; format: cell-based; conditions: Homo sapiens, COLO 205, read-out: percent inhibition
HCT-116 = assay: NCI-60 antiproliferative screening; format: cell-based; conditions: Homo sapiens, HCT-116, read-out: percent inhibition
HT29 = assay: NCI-60 antiproliferative screening; format: cell-based; conditions: Homo sapiens, HT-29, read-out: percent inhibition
SF-295 = assay: NCI-60 antiproliferative screening; format: cell-based; conditions: Homo sapiens, SF-295, read-out: percent inhibition
SF-539 = assay: NCI-60 antiproliferative screening; format: cell-based; conditions: Homo sapiens, SF-539, read-out: percent inhibition
SNB-19 = assay: NCI-60 antiproliferative screening; format: cell-based; conditions: Homo sapiens, SNB-19, read-out: percent inhibition
U251 = assay: NCI-60 antiproliferative screening; format: cell-based; conditions: Homo sapiens, U-251, read-out: percent inhibition
LOX IMVI = assay: NCI-60 antiproliferative screening; format: cell-based; conditions: Homo sapiens, read-out: percent inhibition
MALME-3M = assay: NCI-60 antiproliferative screening; format: cell-based; conditions: Homo sapiens, read-out: percent inhibition
M14 = assay: NCI-60 antiproliferative screening; format: cell-based; conditions: Homo sapiens, M14, read-out: percent inhibition
SK-MEL-28 = assay: NCI-60 antiproliferative screening; format: cell-based; conditions: Homo sapiens, SK-MEL-28, read-out: percent inhibition
SK-MEL-5 = assay: NCI-60 antiproliferative screening; format: cell-based; conditions: Homo sapiens, SK-MEL-5, read-out: percent inhibition
UACC-257 = assay: NCI-60 antiproliferative screening; format: cell-based; conditions: Homo sapiens, UACC-257, read-out: percent inhibition
IGROV1 = assay: NCI-60 antiproliferative screening; format: cell-based; conditions: Homo sapiens, IGROV-1, read-out: percent inhibition
OVCAR-3 = assay: NCI-60 antiproliferative screening; format: cell-based; conditions: Homo sapiens, OVCAR-3, read-out: percent inhibition
OVCAR-8 = assay: NCI-60 antiproliferative screening; format: cell-based; conditions: Homo sapiens, OVCAR-8, read-out: percent inhibition
SK-OV-3 = assay: NCI-60 antiproliferative screening; format: cell-based; conditions: Homo sapiens, SK-OV-3, read-out: percent inhibition
ACHN = assay: NCI-60 antiproliferative screening; format: cell-based; conditions: Homo sapiens, read-out: percent inhibition
CAKI-1 = assay: NCI-60 antiproliferative screening; format: cell-based; conditions: Homo sapiens, CAKI-1, read-out: percent inhibition
PC-3 = assay: NCI-60 antiproliferative screening; format: cell-based; conditions: Homo sapiens, PC-3, read-out: percent inhibition
T-47D = assay: NCI-60 antiproliferative screening; format: cell-based; conditions: Homo sapiens, T47D, read-out: percent inhibition

Chain of HDAC7 (Q8WUI4 whole entry): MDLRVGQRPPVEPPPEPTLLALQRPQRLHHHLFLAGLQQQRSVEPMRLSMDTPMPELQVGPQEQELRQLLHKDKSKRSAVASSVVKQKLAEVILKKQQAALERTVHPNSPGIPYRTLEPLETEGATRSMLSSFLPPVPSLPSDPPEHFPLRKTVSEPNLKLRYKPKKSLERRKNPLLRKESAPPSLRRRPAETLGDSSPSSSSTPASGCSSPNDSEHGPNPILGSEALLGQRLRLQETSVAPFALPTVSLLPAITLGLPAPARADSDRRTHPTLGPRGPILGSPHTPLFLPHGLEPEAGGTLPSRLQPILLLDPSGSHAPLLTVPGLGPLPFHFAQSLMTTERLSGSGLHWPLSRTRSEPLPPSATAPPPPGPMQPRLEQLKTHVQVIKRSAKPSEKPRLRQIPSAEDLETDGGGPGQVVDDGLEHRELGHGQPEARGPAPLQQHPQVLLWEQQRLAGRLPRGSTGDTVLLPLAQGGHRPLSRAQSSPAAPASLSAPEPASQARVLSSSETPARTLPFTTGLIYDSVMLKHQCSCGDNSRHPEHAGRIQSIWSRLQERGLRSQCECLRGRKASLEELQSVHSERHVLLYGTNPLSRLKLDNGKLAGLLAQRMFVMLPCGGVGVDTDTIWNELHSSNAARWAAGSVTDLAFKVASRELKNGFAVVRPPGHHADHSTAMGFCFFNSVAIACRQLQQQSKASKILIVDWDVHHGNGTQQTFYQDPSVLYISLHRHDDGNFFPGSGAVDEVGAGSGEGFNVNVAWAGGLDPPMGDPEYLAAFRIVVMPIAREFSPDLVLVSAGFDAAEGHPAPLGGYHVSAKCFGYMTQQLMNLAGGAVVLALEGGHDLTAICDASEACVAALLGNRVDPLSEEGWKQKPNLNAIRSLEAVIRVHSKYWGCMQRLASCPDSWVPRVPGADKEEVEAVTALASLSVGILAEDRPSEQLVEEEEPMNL
Chain of HDAC5 (Q9UQL6 whole entry): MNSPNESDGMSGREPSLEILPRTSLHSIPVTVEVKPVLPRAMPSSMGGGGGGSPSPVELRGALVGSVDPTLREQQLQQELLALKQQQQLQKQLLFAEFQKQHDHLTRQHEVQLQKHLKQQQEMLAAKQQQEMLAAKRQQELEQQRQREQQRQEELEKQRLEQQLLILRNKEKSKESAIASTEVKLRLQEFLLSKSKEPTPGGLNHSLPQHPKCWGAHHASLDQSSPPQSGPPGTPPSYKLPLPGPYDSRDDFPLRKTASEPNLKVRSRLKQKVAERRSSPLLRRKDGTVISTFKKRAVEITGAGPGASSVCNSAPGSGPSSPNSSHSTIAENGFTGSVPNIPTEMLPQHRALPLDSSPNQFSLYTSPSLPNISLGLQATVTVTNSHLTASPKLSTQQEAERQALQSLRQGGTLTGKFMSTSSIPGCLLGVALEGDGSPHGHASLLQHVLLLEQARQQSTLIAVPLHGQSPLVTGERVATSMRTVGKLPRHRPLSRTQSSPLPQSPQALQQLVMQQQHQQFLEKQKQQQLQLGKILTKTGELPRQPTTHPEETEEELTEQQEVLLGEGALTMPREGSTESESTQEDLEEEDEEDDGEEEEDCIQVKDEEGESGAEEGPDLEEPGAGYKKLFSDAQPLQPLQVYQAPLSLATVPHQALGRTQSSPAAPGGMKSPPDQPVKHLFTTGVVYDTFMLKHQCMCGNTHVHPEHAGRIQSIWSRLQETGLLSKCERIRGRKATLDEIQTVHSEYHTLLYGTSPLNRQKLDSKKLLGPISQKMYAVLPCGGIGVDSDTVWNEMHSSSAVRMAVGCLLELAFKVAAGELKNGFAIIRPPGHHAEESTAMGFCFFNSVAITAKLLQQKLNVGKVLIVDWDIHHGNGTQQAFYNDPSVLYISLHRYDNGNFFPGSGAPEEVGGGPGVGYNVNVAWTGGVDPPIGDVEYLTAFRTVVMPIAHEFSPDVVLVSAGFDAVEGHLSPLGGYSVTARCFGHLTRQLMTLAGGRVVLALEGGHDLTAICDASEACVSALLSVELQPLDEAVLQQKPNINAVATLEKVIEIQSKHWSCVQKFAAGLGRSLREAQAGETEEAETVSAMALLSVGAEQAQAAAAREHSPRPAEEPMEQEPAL
Chain of HDAC8 (Q9BY41 whole entry): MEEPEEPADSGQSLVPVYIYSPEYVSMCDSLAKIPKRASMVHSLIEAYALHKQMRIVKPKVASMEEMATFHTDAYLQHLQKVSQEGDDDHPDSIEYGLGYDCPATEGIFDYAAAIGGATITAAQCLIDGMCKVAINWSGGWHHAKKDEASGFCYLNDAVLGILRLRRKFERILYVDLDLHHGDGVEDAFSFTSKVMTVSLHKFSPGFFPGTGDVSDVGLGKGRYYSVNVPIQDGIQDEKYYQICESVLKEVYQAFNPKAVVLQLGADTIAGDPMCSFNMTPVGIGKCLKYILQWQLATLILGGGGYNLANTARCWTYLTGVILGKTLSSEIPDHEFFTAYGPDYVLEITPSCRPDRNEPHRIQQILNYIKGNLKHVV
Chain of HDAC4 (P56524 whole entry): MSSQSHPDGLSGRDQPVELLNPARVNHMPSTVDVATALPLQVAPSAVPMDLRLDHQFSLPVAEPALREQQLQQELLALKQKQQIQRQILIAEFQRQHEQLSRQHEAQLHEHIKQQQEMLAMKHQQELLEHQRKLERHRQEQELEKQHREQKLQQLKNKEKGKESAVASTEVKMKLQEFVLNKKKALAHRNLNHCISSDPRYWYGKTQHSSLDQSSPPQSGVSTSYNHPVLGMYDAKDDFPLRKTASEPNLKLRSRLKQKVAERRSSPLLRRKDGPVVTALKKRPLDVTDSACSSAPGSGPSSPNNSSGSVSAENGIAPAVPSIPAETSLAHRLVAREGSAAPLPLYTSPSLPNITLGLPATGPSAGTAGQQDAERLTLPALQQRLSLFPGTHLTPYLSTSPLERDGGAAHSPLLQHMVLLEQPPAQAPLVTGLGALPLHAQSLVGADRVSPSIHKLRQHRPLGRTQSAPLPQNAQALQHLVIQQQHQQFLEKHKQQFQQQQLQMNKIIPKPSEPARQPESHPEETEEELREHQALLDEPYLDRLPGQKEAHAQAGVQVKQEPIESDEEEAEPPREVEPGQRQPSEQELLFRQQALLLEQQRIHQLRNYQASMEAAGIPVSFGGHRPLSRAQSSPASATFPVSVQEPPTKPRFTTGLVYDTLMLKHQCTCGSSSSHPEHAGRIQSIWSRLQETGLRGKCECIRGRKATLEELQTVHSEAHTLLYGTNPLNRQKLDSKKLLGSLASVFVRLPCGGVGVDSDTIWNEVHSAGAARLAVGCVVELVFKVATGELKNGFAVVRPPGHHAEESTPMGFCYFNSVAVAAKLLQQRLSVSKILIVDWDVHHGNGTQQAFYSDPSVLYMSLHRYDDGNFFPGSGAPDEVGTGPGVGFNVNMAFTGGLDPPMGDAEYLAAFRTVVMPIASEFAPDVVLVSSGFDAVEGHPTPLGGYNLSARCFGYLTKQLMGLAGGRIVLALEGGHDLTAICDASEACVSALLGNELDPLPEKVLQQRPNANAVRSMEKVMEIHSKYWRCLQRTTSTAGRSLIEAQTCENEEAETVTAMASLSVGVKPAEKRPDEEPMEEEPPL

Structure (SMILES): COc1ccc(CN2[C@@H](C(=O)NCCCCCCC(=O)NO)Cc3c([nH]c4ccccc34)[C@@H]2C2CC2)cc1 [Compound 13d, (1S,3R)-1-Cyclopropyl-N-(7-(hydroxyamino)-7-oxoheptyl)-2-(4-methoxybenzyl)-2,3,4,9-tetrahydro-1H-pyrido[3,4-b]indole-3-carboxamide]
- IC50 (HDAC4): > 50 µM
- activity for HDAC4 (in words) (HDAC4): no activity
- IC50 (HDAC5): > 50 µM
- activity for HDAC5 (in words) (HDAC5): no activity
- IC50 (HDAC7): > 50 µM
- activity for HDAC7 (in words) (HDAC7): no activity
- IC50 (HDAC8): > 50 µM
- activity for HDAC8 (in words) (HDAC8): no activity
- IC50 [1]: 1.54 ± 0.03 µM
- inhibition at 10 µM (CCRF-CEM): 80.3%
- inhibition at 10 µM (K-562): 92.5%
- inhibition at 10 µM (MOLT-4): 87.8%
- inhibition at 10 µM (HOP-62): 86%
- inhibition at 10 µM (NCI-H460): 93.6%
- inhibition at 10 µM (NCI-H522): 100%
- inhibition at 10 µM (COLO 205): 100%
- inhibition at 10 µM (HCT-116): 97.9%
- inhibition at 10 µM (HT29): 93.7%
- inhibition at 10 µM (SF-295): 100%
- inhibition at 10 µM (SF-539): 97.1%
- inhibition at 10 µM (SNB-19): 93.3%
- inhibition at 10 µM (U251): 100%
- inhibition at 10 µM (LOX IMVI): 100%
- inhibition at 10 µM (MALME-3M): 98.5%
- inhibition at 10 µM (M14): 82.4%
- inhibition at 10 µM (SK-MEL-28): 90.2%
- inhibition at 10 µM (SK-MEL-5): 100%
- inhibition at 10 µM (UACC-257): 90.1%
- inhibition at 10 µM (IGROV1): 100%
- inhibition at 10 µM (OVCAR-3): 96.8%
- inhibition at 10 µM (OVCAR-8): 97.3%
- inhibition at 10 µM (SK-OV-3): 100%
- inhibition at 10 µM (ACHN): 99.3%
- inhibition at 10 µM (CAKI-1): 96%
- inhibition at 10 µM (PC-3): 80.9%
- inhibition at 10 µM (T-47D): 100%
